Where two headings read alike, the source gives them in different places.
Test system: Gli1-mediated transcription
Test: Gli1-mediated transcriptional luciferase reporter assay
Assay type: cell-based
Details: Shh-LIGHT2 cells, antagonist mode, purmorphamine 1.5 μM stimulation, 24 h
Method: Gli1-mediated transcriptional luciferase reporter assay was performed using Shh-LIGHT2 cells in order to evaluate the effects on activation and inhibition of Gli1-mediated transcription by the compounds of the disclosure. Brief assay procedure is provided below. […] Shh-LIGHT2 cells were harvested from about 80% confluent 10-cm dish using 0.25% Trypsin-EDTA solution. Medium was removed, and cells were washed with 5 mL DPBS and aspirated. Then, 1 mL 0.25% Trypsin-EDTA solution was added to a 10-cm dish. The dish was placed in the incubator for 1-3 minutes, or until cells have detached. 3 mL of cell growth medium (DMEM, 10% FBS, 1% PenStrep, 1% sodium pyruvate, and 1% GlutaMax) was added to the 10-cm dish, and the contents were transferred to a conical tube. […] The cell assay plate was removed from incubator after cells reached confluency. The culture medium was then manually removed from the cell plates, and the plates were centrifuged at 200 rpm for 30 seconds. […] After 30 min incubation of antagonist, cells were stimulated with agonist (purmorphamine, 5 μL, 1.5 μM final), then incubate for 24 h at 37° C./5% CO2. […] Luciferase assay: After incubation, the cell assay plate was allowed to acclimate to room temperature. Then, 20 μL of Duo-Glo® Luciferase Reagent (Promega) was added to each well of cell assay plate. The plate was briefly spun down, mixed, and incubated for 30 minutes at room temperature. The cell plate was read using luminometer for firefly luminescence activity. Then, 20 μL of Duo-Glo® Step&Glo® Reagent (Promega) was added to each well of cell assay plate. The plate was briefly spun down, mixed, and incubated for 30 minutes at room temperature. The cell plate was read using luminometer for Renilla luminescence activity. Ratio of firefly: Renilla luminescence was calculated for each well. The compound well ratio was normalized to the ratio from a control well.

[1] = firefly luminescence, read-out: Gli1 IC50 firefly
[2] = ratio of firefly:Renilla luminescence, read-out: Gli1 IC50 firefly:Renilla ratio

`Clc1ccccc1-c1nc2c([nH]1)CN([C@@H]1CCc3cccc(Cl)c3C1)CC2` [Example 1-R, (R)-5-(8-chloro-1,2,3,4-tetrahydronaphthalen-2-yl)-2-(2-chlorophenyl)-4,5,6,7-tetrahydro-3H-imidazo[4,5-c]pyridine] was tested. Which IC50 [1] did it give?
Its IC50 is 0.1 to 0.49 µM.

What about the IC50 [2] of the same compound?
The IC50 was 0.1 to 0.49 µM.

Which results are given for `Fc1cc2c(cc1F)CC(N1CCc3nc(-c4ccccc4F)[nH]c3C1)CC2` (stereo not shown) [Example 72, 5-(6,7-difluoro-1,2,3,4-tetrahydronaphthalen-2-yl)-2-(2-fluorophenyl)-4,5,6,7-tetrahydro-3H-imidazo[4,5-c]pyridine]?
IC50 [1]: 1 to 50 µM; IC50 [2]: 1 to 50 µM

`Clc1ccccc1-c1nc2c([nH]1)CN(C1CCc3cc(C4CC4)ccc3C1)CC2` (stereo not shown) [Example 31, 2-(2-chlorophenyl)-5-(6-cyclopropyl-1,2,3,4-tetrahydronaphthalen-2-yl)-4,5,6,7-tetrahydro-3H-imidazo[4,5-c]pyridine] was tested. Which IC50 [1] did it give?
Its IC50 is 1 to 50 µM.

And the IC50 [2]?
The IC50 was 0.5 to 0.99 µM.

How did the IC50 [1] turn out when `Fc1ccccc1-c1nc2c([nH]1)CN(C1CCc3ncccc3C1)CC2` (stereo not shown) [Example 55, 6-(2-(2-fluorophenyl)-3,4,6,7-tetrahydro-5H-imidazo[4,5-c]pyridin-5-yl)-5,6,7,8-tetrahydroquinoline] was run?
Its IC50 is 1 to 50 µM.

What about the IC50 [2] of the same compound?
Its IC50 is 1 to 50 µM.

With `COc1cccc2c1CC(N1CCc3nc(-c4ccccc4F)[nH]c3C1)CC2` (stereo not shown) [Example 9, 2-(2-fluorophenyl)-5-(8-methoxy-1,2,3,4-tetrahydronaphthalen-2-yl)-4,5,6,7-tetrahydro-3H-imidazo[4,5-c]pyridine] as the compound, how does the IC50 [1] read?
Its IC50 is 0.5 to 0.99 µM.

What about the IC50 [2] of the same compound?
The IC50 was 1 to 50 µM.

Which IC50 [1] does the source give for `Clc1ccccc1-c1nc2c([nH]1)CC(N1Cc3cccc(Cl)c3C1)CC2` (stereo not shown) [Example 186, 6-(4-chloroisoindolin-2-yl)-2-(2-chlorophenyl)-4,5,6,7-tetrahydro-1H-benzo[d]imidazole] here?
Its IC50 is under 0.1 µM.

What about the IC50 [2] of the same compound?
Its IC50 is under 0.1 µM.

Which IC50 [1] does the source give for `OC1c2c(Cl)cccc2CCC1N1CCc2nc(-c3ccccc3Cl)[nH]c2C1` (stereo not shown) [Example 14, 8-chloro-2-(2-(2-chlorophenyl)-3,4,6,7-tetrahydro-5H-imidazo[4,5-c]pyridin-5-yl)-1,2,3,4-tetrahydronaphthalen-1-ol] here?
Its IC50 is 1 to 50 µM.

And the IC50 [2]?
The IC50 was 1 to 50 µM.

For `Fc1cc(F)c2c(c1)CC(N1CCc3nc(-c4ccccc4F)[nH]c3C1)CC2` (stereo not shown) [Example 73, 5-(5,7-difluoro-1,2,3,4-tetrahydronaphthalen-2-yl)-2-(2-fluorophenyl)-4,5,6,7-tetrahydro-3H-imidazo[4,5-c]pyridine], which IC50 [1] is on record?
Its IC50 is over 30 µM.

And the IC50 [2]?
The IC50 was over 30 µM.

For `Clc1ccccc1-c1nc2c([nH]1)CN(C1Cc3cccc(Cl)c3C1)CC2` (racemic) [Example 12, 5-(4-chloro-2,3-dihydro-1H-inden-2-yl)-2-(2-chlorophenyl)-4,5,6,7-tetrahydro-3H-imidazo[4,5-c]pyridine], which IC50 [1] is on record?
The IC50 was 0.1 to 0.49 µM.

What about the IC50 [2] of the same compound?
Its IC50 is 0.1 to 0.49 µM.

What does the source list for `Clc1cccc(-c2nc3c([nH]2)CN(C2CCc4ccc(Cl)cc4C2)CC3)c1` (stereo not shown) [Example 42, 5-(7-chloro-1,2,3,4-tetrahydronaphthalen-2-yl)-2-(3-chlorophenyl)-4,5,6,7-tetrahydro-3H-imidazo[4,5-c]pyridine]?
IC50 [1]: 1 to 50 µM; IC50 [2]: 1 to 50 µM

For `COc1ccc(-c2nc3c([nH]2)CN(C2CCc4ccc(Cl)cc4C2)CC3)c(Cl)c1` (stereo not shown) [Example 23, 5-(7-chloro-1,2,3,4-tetrahydronaphthalen-2-yl)-2-(2-chloro-4-methoxyphenyl)-4,5,6,7-tetrahydro-3H-imidazo[4,5-c]pyridine], which IC50 [1] is on record?
Its IC50 is under 0.1 µM.

What about the IC50 [2] of the same compound?
Its IC50 is under 0.1 µM.

For `Fc1ccccc1-c1nc2c([nH]1)CN(C1CCc3cccc(F)c3C1)CC2` (stereo not shown) [Example 11, 5-(8-fluoro-1,2,3,4-tetrahydronaphthalen-2-yl)-2-(2-fluorophenyl)-4,5,6,7-tetrahydro-3H-imidazo[4,5-c]pyridine], which IC50 [1] is on record?
Its IC50 is 1 to 50 µM.

And the IC50 [2]?
Its IC50 is 1 to 50 µM.

`Cc1cn(-c2ccc3c(c2)CCC(N2CCc4nc(-c5ccccc5Cl)[nH]c4C2)C3)cn1` (stereo not shown) [Example 32, 2-(2-chlorophenyl)-5-(6-(4-methyl-1H-imidazol-1-yl)-1,2,3,4-tetrahydronaphthalen-2-yl)-4,5,6,7-tetrahydro-3H-imidazo[4,5-c]pyridine] was tested. Which IC50 [1] did it give?
The IC50 was 1 to 50 µM.

What about the IC50 [2] of the same compound?
Its IC50 is 1 to 50 µM.

How did the IC50 [1] turn out when `COc1ccc2c(c1)CC(N1CCc3nc(-c4ccccc4F)[nH]c3C1)CC2` (stereo not shown) [Example 8, 2-(2-fluorophenyl)-5-(7-methoxy-1,2,3,4-tetrahydronaphthalen-2-yl)-4,5,6,7-tetrahydro-3H-imidazo[4,5-c]pyridine] was run?
Its IC50 is 1 to 50 µM.

What about the IC50 [2] of the same compound?
Its IC50 is 1 to 50 µM.

Which results are given for `Cn1c(-c2ccccc2Cl)nc2c1CN(C1CCc3cccc(C4CC4)c3C1)CC2` (stereo not shown) [Example 161, 2-(2-chlorophenyl)-5-(8-cyclopropyl-1,2,3,4-tetrahydronaphthalen-2-yl)-3-methyl-4,5,6,7-tetrahydro-3H-imidazo[4,5-c]pyridine]?
IC50 [1]: 0.1 to 0.49 µM; IC50 [2]: 0.1 to 0.49 µM

How did the IC50 [1] turn out when `Clc1cccnc1-c1nc2c([nH]1)CN(C1CCc3cccc(Cl)c3C1)CC2` (stereo not shown) [Example 77, 5-(8-chloro-1,2,3,4-tetrahydronaphthalen-2-yl)-2-(3-chloropyridin-.2-yl)-4,5,6,7-tetrahydro-3H-imidazo[4,5-c]pyndine] was run?
The IC50 was 1 to 50 µM.

What about the IC50 [2] of the same compound?
The IC50 was 1 to 50 µM.

For `COc1cccc2c1CCC(N1CCc3nc(-c4ccccc4Cl)[nH]c3C1)C2` (stereo not shown) [Example 10, 2-(2-chlorophenyl)-5-(5-methoxy-1,2,3,4-tetrahydronaphthalen-2-yl)-4,5,6,7-tetrahydro-3H-imidazo[4,5-c]pyridine], which IC50 [1] is on record?
Its IC50 is 0.1 to 0.49 µM.

And the IC50 [2]?
Its IC50 is 0.1 to 0.49 µM.

Which IC50 [1] does the source give for `COc1cccc(-c2nc3c([nH]2)CN(C2CCc4ccc(OC)cc4C2)CC3)c1` (stereo not shown) [Example 4, 5-(7-methoxy-1,2,3,4-tetrahydronaphthalen-2-yl)-2-(3-methoxyphenyl)-4,5,6,7-tetrahydro-3H-imidazo [4,5-c]pyridine] here?
Its IC50 is 0.5 to 0.99 µM.

What about the IC50 [2] of the same compound?
The IC50 was 1 to 50 µM.

Which results are given for `Clc1ccccc1-c1nc2c([nH]1)CN(C1CCc3ccc(C#CC4CC4)cc3C1)CC2` (stereo not shown) [Example 35, 2-(2-chlorophenyl)-5-(7-(cyclopropylethynyl)-1,2,3,4-tetrahydronaphthalen-2-yl)-4,5,6,7-tetrahydro-3H-imidazo[4,5-c]pyridine]?
IC50 [1]: 1 to 50 µM; IC50 [2]: 1 to 50 µM

Which IC50 [1] does the source give for `O[C@@H]1Cc2ccccc2C[C@H]1N1CCc2nc(-c3ccccc3Cl)[nH]c2C1` [Example 20, (2R,3R)-3-(2-(2-chlorophenyl)-3,4,6,7-tetrahydro-5H-imidazo[4,5-c]pyridin-5-yl)-1,2,3,4-tetrahydronaphthalen-2-ol] here?
Its IC50 is 1 to 50 µM.

What about the IC50 [2] of the same compound?
The IC50 was 1 to 50 µM.

With `Clc1ccc2c(c1)CC(N1CCc3nc(-c4ccc(Br)cc4Cl)[nH]c3C1)CC2` (stereo not shown) [Example 29, 2-(4-bromo-2-chlorophenyl)-5-(7-chloro-1,2,3,4-tetrahydronaphthalen-2-yl)-4,5,6,7-tetrahydro-3H-imidazo[4,5-c]pyridine] as the compound, how does the IC50 [1] read?
Its IC50 is 0.5 to 0.99 µM.

What about the IC50 [2] of the same compound?
Its IC50 is 0.1 to 0.49 µM.

How did the IC50 [1] turn out when `Cn1c(-c2ccccc2Cl)nc2c1CC(N1Cc3cccc(Cl)c3C1)CC2` (stereo not shown) [Example 189, 6-(4-chloroisoindolin-2-yl)-2-(2-chlorophenyl)-1-methyl-4,5,6,7-tetrahydro-1H-benzo[d]imidazole] was run?
Its IC50 is under 0.1 µM.

What about the IC50 [2] of the same compound?
The IC50 was under 0.1 µM.

What does the source list for `Clc1ccccc1-c1nc2c([nH]1)CN([C@H]1CCc3cccc(Cl)c3C1)CC2` [Example 1-S, (S)-5-(8-chloro-1,2,3,4-tetrahydronaphthalen-2-yl)-2-(2-chlorophenyl)-4,5,6,7-tetrahydro-3H-imidazo[4,5-c]pyridine]?
IC50 [1]: 0.1 to 0.49 µM; IC50 [2]: 0.1 to 0.49 µM

Reference: US12209092B2, “Inhibitors of GLI1 as therapeutic agents” (NEW YORK UNIVERSITY, priority 2018, dated 2025)
